Laboratory results published in patent US20050197350A1, “Novel quinoline, tetrahydroquinazoline, and pyrimidine derivatives and methods of treatment related to the use thereof” (TAISHO PHARMACEUTICAL CO., LTD., priority 2003, published 2005).

These compounds were tested on MCH receptors (assay: MCH receptor activity class (method not given)). Settings: class by percent of control at 10^−7 M or IC50.
With `Cc1nc(N[C@H]2CC[C@@H](NC(=O)c3cncc(Br)c3)CC2)nc(N(C)C)c1C` [compound 2857, 5-bromo-N-(cis-4-{[4-(dimethylamino)-5,6-dimethylpyrimidin-2-yl]amino}cyclohexyl)nicotinamide] the class was 1 (Class 1: The value of percent of control at 10^−7 M was less than 40% or the value of IC50 was less than 50 nM.).
With `Cc1ccc(C(=O)N[C@H]2CC[C@@H](Nc3nc(C)c(C)c(N(C)C)n3)CC2)s1` [compound 2858] the class was 1 (Class 1: The value of percent of control at 10^−7 M was less than 40% or the value of IC50 was less than 50 nM.).
In the case of `Cc1nc(N[C@H]2CC[C@@H](NC(=O)c3ccc(C(F)(F)F)nc3)CC2)nc(N(C)C)c1C` [compound 2859], the class was 2 (Class 2: The value of percent of control at 10^−7 M was from 40% to 60% or the value of IC′50 was from 50 nM to 200 nM.).
For `CCOc1cc(OCC)cc(C(=O)N[C@H]2CC[C@@H](Nc3nc(C)c(C)c(N(C)C)n3)CC2)c1` [compound 2860], the class was 1 (Class 1: The value of percent of control at 10^−7 M was less than 40% or the value of IC50 was less than 50 nM.).
In the case of `CCOc1cccc(C(=O)N[C@H]2CC[C@@H](Nc3nc(C)c(C)c(N(C)C)n3)CC2)c1` [compound 2861], the class was 1 (Class 1: The value of percent of control at 10^−7 M was less than 40% or the value of IC50 was less than 50 nM.).
With `Cc1nc(N[C@H]2CC[C@@H](NC(=O)c3cccc(OC(C)C)c3)CC2)nc(N(C)C)c1C` [compound 2862] the class was 1 (Class 1: The value of percent of control at 10^−7 M was less than 40% or the value of IC50 was less than 50 nM.).
`Cc1nc(N[C@H]2CC[C@@H](NC(=O)c3cccc(O)n3)CC2)nc(N(C)C)c1C` [compound 2863] was tested, and the class was 3 (Class 3 The value of percent of control at 10^−7 M was more than 60% or the value of IC50 was more than 200 nM.).
For `Cc1nc(N[C@H]2CC[C@@H](NC(=O)c3ccc(F)c(F)c3)CC2)nc(N(C)C)c1C` [compound 2864], the class was 1 (Class 1: The value of percent of control at 10^−7 M was less than 40% or the value of IC50 was less than 50 nM.).
`Cc1nc(N[C@H]2CC[C@@H](NCc3cccc(OC(F)(F)F)c3)CC2)nc(N(C)C)c1C` [compound 2865] was tested, and the class was 3 (Class 3 The value of percent of control at 10^−7 M was more than 60% or the value of IC50 was more than 200 nM.).
`Cc1nc(N[C@H]2CC[C@@H](NCc3ccc(F)c(F)c3)CC2)nc(N(C)C)c1C` [compound 2866] was tested, and the class was 2 (Class 2: The value of percent of control at 10^−7 M was from 40% to 60% or the value of IC′50 was from 50 nM to 200 nM.).
For `CCOc1ccccc1NC(=O)N[C@H]1CC[C@@H](Nc2nc(C)c(C)c(N(C)C)n2)CC1` [compound 2868], the class was 1 (Class 1: The value of percent of control at 10^−7 M was less than 40% or the value of IC50 was less than 50 nM.).
In the case of `Cc1nc(N[C@H]2CC[C@@H](NC(=O)Nc3ccc(OCc4ccccc4)cc3)CC2)nc(N(C)C)c1C` [compound 2869], the class was 3 (Class 3 The value of percent of control at 10^−7 M was more than 60% or the value of IC50 was more than 200 nM.).
In the case of `Cc1cnc(N[C@H]2CC[C@@H](NC(=O)C3(c4ccc(Cl)cc4)CC3)CC2)nc1N(C)C` [compound 2870], the class was 1 (Class 1: The value of percent of control at 10^−7 M was less than 40% or the value of IC50 was less than 50 nM.).
With `Cc1cnc(N[C@H]2CC[C@@H](NC(=O)C3(c4ccc(Cl)cc4Cl)CC3)CC2)nc1N(C)C` [compound 2871] the class was 1 (Class 1: The value of percent of control at 10^−7 M was less than 40% or the value of IC50 was less than 50 nM.).
In the case of `Cc1cnc(N[C@H]2CC[C@@H](NC(=O)Cc3ccc(Cl)cc3)CC2)nc1N(C)C` [compound 2872, 2-(4-chlorophenyl)-N-(cis-4-{[4-(dimethylamino)-5-methylpyrimidin-2-yl]amino}cyclohexyl)acetamide], the class was 1 (Class 1: The value of percent of control at 10^−7 M was less than 40% or the value of IC50 was less than 50 nM.).
In the case of `Cc1ccc(C2(C(=O)N[C@H]3CC[C@@H](Nc4ncc(C)c(N(C)C)n4)CC3)CC2)cc1` [compound 2873], the class was 1 (Class 1: The value of percent of control at 10^−7 M was less than 40% or the value of IC50 was less than 50 nM.).
With `COc1ccc(C2(C(=O)N[C@H]3CC[C@@H](Nc4ncc(C)c(N(C)C)n4)CC3)CC2)cc1` [compound 2875] the class was 1 (Class 1: The value of percent of control at 10^−7 M was less than 40% or the value of IC50 was less than 50 nM.).
For `COc1cccc(OCC(=O)N[C@H]2CC[C@@H](Nc3ncc(C)c(N(C)C)n3)CC2)c1` [compound 2877, N-(cis-4-{[4-(dimethylamino)-5-methylpyrimidin-2-yl]amino}cyclohexyl)-2-(3-methoxyphenoxy)acetamide], the class was 1 (Class 1: The value of percent of control at 10^−7 M was less than 40% or the value of IC50 was less than 50 nM.).
With `Cc1cnc(N[C@H]2CC[C@@H](NC(=O)COc3cccc(C(F)(F)F)c3)CC2)nc1N(C)C` [compound 2878, N-(cis-4-{[4-(dimethylamino)-5-methylpyrimidin-2-yl]amino}cyclohexyl)-2-[3-(trifluoromethyl)phenoxy]acetamide] the class was 1 (Class 1: The value of percent of control at 10^−7 M was less than 40% or the value of IC50 was less than 50 nM.).
`Cc1cnc(N[C@H]2CC[C@@H](NC(=O)COc3cccc(Cl)c3)CC2)nc1N(C)C` [compound 2879, 2-(3-chlorophenoxy)-N-(cis-4-{[4-(dimethylamino)-5-methylpyrimidin-2-yl]amino}cyclohexyl)acetamide] was tested, and the class was 1 (Class 1: The value of percent of control at 10^−7 M was less than 40% or the value of IC50 was less than 50 nM.).
With `Cc1cccc(Oc2ncccc2C(=O)N[C@H]2CC[C@@H](Nc3ncc(C)c(N(C)C)n3)CC2)c1` [compound 2885, N-(cis-4-{[4-(dimethylamino)-5-methylpyrimidin-2-yl]amino}cyclohexyl)-2-(3-methylphenoxy)nicotinamide] the class was 1 (Class 1: The value of percent of control at 10^−7 M was less than 40% or the value of IC50 was less than 50 nM.).
In the case of `Cc1cnc(N[C@H]2CC[C@@H](NC(=O)c3cccnc3Oc3cccc(F)c3)CC2)nc1N(C)C` [compound 2886, N-(cis-4-{[4-(dimethylamino)-5-methylpyrimidin-2-yl]amino}cyclohexyl)-2-(3-fluorophenoxy)nicotinamide], the class was 1 (Class 1: The value of percent of control at 10^−7 M was less than 40% or the value of IC50 was less than 50 nM.).
`COc1cccc(Oc2ncccc2C(=O)N[C@H]2CC[C@@H](Nc3ncc(C)c(N(C)C)n3)CC2)c1` [compound 2887, N-(cis-4-{[4-(dimethylamino)-5-methylpyrimidin-2-yl]amino}cyclohexyl)-2-(3-methoxyphenoxy)nicotinamide] was tested, and the class was 1 (Class 1: The value of percent of control at 10^−7 M was less than 40% or the value of IC50 was less than 50 nM.).
With `COc1ccc(Oc2ncccc2C(=O)N[C@H]2CC[C@@H](Nc3ncc(C)c(N(C)C)n3)CC2)cc1` [compound 2888, N-(cis-4-{[4-(dimethylamino)-5-methylpyrimidin-2-yl]amino}cyclohexyl)-2-(4-methoxyphenoxy)nicotinamide] the class was 1 (Class 1: The value of percent of control at 10^−7 M was less than 40% or the value of IC50 was less than 50 nM.).
`Cc1cnc(N[C@H]2CC[C@@H](NC(=O)c3cccnc3Oc3ccc(I)cc3)CC2)nc1N(C)C` [compound 2889, N-(cis-4-{[4-(dimethylamino)-5-methylpyrimidin-2-yl]amino}cyclohexyl)-2-(4-iodophenoxy)nicotinamide] was tested, and the class was 1 (Class 1: The value of percent of control at 10^−7 M was less than 40% or the value of IC50 was less than 50 nM.).
